From patent publication US11312713B2, “Imidazo[4,5-C]quinoline derivatives as LRRK2 inhibitors” (Pfizer Inc., priority 2017, dated 2022) come the findings set out here.

Assay [1] deals with LRRK2, WT (GST-tagged truncated LRRK2) (Homo sapiens, UniProt Q5S007). As to the kind of experiment: LRRK2 kinase assay (LanthaScreen), wild type. The assay is classed as biochemical. The protocol:
(§1) LRRK2 kinase activity was measured using Lantha Screen technology from Invitrogen. GST-tagged truncated LRRK2 from Invitrogen (Cat #PV4874) was incubated with a fluorescein-labeled peptide substrate based upon ezrin/radixin/moesin (ERM), also known as LRRKtide (Invitrogen cat #PR8976A), in the presence of a dose response of compound. Upon completion, the assay was stopped and detected with a terbium labeled anti-phospho-ERM antibody (Invitrogen, cat #PR8975A). […] Using Echo acoustic dispensing, 60 nL of compound was transferred to a low volume Corning 384-well assay plate. 3 μL of a working solution of substrate (200 nM LRRKtide, 2 mM ATP) prepared in assay buffer (50 mM HEPES, pH 7.5, 3 mM MgCl2, with 2 mM DTT and 0.01% Brij35 added fresh) was added to the 60 nL compound assay plate. The kinase reaction was started with 3 μL of a working solution of LRRK2 enzyme at a concentration of 4 μg/m L. The final reaction concentrations were 100 nM LRRKtide, 1 mM ATP, 2 μg/mL LRRK2 enzyme and a compound dose response with a top dose of 3 μM. The reaction was allowed to progress at room temperature for 30 minutes and then stopped with the addition of 6 μL of detection buffer (20 mM Tris pH 7.6, 0.01% NP-40, 6 mM EDTA with 2 nM terbium labeled antiphospho-ERM). […] All final concentrations of substrate ATP and enzyme were the same.
Background: Time-resolved FRET reads energy transfer from a long-lived donor to a nearby acceptor.

For the next assay, the target named is mutant G2019S LRRK2 (Homo sapiens (Human), UniProt Q5S007, G2019S). The experiment in a line: LRRK2 kinase assay (LanthaScreen), G2019S mutant. The class given is biochemical. The conditions noted are these: G2019S mutant LRRK2, read-out: LRRK2, G2019S IC50. The protocol: as §1
The mark [2] stands for this setting: wild type LRRK2, LanthaScreen, LRRKtide substrate.
The mark [3] stands for this setting: LanthaScreen, LRRKtide substrate.

Where two headings read alike, the source gives them in different places.

Chain of mutant G2019S LRRK2 (Q5S007 whole entry G2019S): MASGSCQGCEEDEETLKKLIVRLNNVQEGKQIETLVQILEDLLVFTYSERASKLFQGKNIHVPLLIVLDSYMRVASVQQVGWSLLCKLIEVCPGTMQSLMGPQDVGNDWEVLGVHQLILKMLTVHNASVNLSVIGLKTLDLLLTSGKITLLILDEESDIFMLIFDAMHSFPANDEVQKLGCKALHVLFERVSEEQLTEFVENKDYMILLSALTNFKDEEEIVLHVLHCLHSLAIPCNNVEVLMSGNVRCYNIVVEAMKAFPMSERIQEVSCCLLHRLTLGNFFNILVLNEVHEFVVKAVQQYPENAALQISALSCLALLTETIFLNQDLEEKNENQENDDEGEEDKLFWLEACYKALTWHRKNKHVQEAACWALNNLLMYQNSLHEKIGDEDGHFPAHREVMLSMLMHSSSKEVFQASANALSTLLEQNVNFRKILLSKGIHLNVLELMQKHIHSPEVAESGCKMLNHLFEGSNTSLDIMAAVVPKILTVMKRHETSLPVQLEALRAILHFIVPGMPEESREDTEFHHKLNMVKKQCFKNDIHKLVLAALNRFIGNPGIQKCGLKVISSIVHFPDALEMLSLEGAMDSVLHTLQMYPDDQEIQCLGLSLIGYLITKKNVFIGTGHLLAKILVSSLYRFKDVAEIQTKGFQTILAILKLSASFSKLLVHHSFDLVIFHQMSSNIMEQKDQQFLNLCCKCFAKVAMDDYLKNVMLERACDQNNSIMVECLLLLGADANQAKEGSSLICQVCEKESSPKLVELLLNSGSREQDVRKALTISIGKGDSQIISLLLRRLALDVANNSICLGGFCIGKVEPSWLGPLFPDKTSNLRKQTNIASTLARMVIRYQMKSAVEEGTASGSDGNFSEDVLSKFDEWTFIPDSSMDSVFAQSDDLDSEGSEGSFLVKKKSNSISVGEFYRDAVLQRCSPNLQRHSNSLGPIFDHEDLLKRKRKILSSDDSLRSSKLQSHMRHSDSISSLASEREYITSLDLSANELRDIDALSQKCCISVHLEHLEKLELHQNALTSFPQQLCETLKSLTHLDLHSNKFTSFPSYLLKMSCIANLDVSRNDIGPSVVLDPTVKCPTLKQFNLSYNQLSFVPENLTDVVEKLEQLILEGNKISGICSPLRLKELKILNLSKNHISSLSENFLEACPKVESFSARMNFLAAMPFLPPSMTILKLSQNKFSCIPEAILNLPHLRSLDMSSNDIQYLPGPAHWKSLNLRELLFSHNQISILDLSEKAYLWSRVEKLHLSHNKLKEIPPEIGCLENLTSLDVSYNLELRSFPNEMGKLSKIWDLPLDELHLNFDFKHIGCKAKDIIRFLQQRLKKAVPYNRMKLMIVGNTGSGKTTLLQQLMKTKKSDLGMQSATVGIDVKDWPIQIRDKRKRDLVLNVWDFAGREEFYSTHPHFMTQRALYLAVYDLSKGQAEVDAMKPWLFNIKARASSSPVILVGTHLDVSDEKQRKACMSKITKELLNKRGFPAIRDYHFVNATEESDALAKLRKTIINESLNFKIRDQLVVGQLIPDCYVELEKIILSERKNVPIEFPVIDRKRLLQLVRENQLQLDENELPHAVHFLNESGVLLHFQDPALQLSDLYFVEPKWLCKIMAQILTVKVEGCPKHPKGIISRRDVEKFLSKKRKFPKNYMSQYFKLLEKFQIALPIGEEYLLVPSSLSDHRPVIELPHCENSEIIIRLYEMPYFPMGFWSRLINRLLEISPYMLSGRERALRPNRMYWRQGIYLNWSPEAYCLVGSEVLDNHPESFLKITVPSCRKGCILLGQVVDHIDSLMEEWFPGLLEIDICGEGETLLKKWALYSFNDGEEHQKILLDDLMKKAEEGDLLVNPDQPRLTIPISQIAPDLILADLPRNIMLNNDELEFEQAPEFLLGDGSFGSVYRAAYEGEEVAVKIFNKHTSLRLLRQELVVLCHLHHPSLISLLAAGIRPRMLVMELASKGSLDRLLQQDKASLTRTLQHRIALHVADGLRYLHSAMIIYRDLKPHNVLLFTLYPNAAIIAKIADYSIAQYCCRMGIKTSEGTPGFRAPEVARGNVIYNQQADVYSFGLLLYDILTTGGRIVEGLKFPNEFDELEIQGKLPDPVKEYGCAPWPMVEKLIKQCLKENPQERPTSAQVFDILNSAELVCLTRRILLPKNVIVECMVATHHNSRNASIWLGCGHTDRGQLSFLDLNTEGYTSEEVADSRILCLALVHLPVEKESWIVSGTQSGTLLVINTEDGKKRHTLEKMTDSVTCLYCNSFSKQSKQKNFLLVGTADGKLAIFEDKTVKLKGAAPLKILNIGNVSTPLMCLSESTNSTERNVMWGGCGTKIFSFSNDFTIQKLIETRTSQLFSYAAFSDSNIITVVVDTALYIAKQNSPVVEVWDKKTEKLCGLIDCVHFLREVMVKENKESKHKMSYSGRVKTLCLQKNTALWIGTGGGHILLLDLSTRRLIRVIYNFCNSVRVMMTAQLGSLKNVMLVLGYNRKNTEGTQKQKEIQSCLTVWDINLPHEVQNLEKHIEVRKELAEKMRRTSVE

One may read the IC50 as the concentration needed to halve the response being measured. For the compound `N#CCC1CC(n2c(C3CCC3)nc3cnc4ccc(Cl)cc4c32)CCO1` (single isomer, unassigned) [Example 11, [cis-4-(8-Chloro-2-cyclobutyl-1H-imidazo[4,5-c]quinolin-1-yl)tetrahydro-2H-pyran-2-yl]acetonitrile], the IC50 in assay [1] (setting [2]) is 18 nM; on mutant G2019S LRRK2 (setting [3]) it was 5.06 nM.

Turning to `Cc1cnc(C(O)c2nc3cnc4ccc(Cl)cc4c3n2[C@@H]2CCO[C@H](C)C2)cn1` (single isomer, unassigned) [Example 14], the IC50 worked out at 14.2 nM in assay [1] and 12.8 nM on mutant G2019S LRRK2 (setting [3]).

Regarding `Cc1cnc(C(O)c2nc3cnc4ccc(Cl)cc4c3n2[C@@H]2CCO[C@H](C)C2)cn1` (single isomer, unassigned) [Example 15], the IC50 is 16.3 nM in assay [1] (setting [2]) and 18.4 nM at mutant G2019S LRRK2 (setting [3]).

In the case of `CCc1nc2cnc3ccc(Cl)cc3c2n1[C@@H]1CCO[C@H](CC#N)C1` [Example 1, [(2S,4R)-4-(8-Chloro-2-ethyl-1H-imidazo[4,5-c]quinolin-1-yl)tetrahydro-2H-pyran-2-yl]acetonitrile], the IC50 was determined as 10.2 nM in assay [1] (setting [2]) and 8.87 nM at mutant G2019S LRRK2 (setting [3]).

As for `Cc1nn2cc(Cc3nc4cnc5ccc(F)cc5c4n3[C@@H]3CCO[C@H](C)C3)nc2s1` [Example 28, 8-fluoro-2-[(2-methylimidazo[2,1-b][1,3,4]thiadiazol-6-yl)methyl]-1-[(2R,4R)-2-methyltetrahydro-2H-pyran-4-yl]-1H-imidazo[4,5-c]quinoline], the IC50 in assay [1] (setting [2]) amounted to 7.18 nM; on mutant G2019S LRRK2 (setting [3]), 4.59 nM.

On to `Cc1cnc(Cc2nc3cnc4ccc(C(F)(F)F)cc4c3n2[C@@H]2CCO[C@H](C)C2)cn1` [Example 29, 2-[(5-methylpyrazin-2-yl)methyl]-1-[(2R,4R)-2-methyltetrahydro-2H-pyran-4-yl]-8-(trifluoromethyl)-1H-imidazo[4,5-c]quinoline], for which the IC50 in assay [1] (setting [2]) is 6.47 nM; at mutant G2019S LRRK2 (setting [3]), 4.13 nM.

As for `C[C@@H]1C[C@H](n2c(C3CCCC3)nc3cnc4ccc(C#N)cc4c32)CCO1` [Example 30, 2-cyclopentyl-1-[(2R,4R)-2-methyltetrahydro-2H-pyran-4-yl]-1H-imidazo[4,5-c]quinoline-8-carbonitrile], the IC50 was 20.6 nM in assay [1] (setting [2]) and 22 nM at mutant G2019S LRRK2 (setting [3]).

As for `Cc1nc2cnc3ccc(Cl)cc3c2n1C1CCOC(CC#N)C1` (stereo not drawn) [Example 31, [cis-4-(8-chloro-2-methyl-1H-imidazo[4,5-c]quinolin-1-yl)tetrahydro-2H-pyran-2-yl]acetonitrile], the figures for the IC50 (in assay [1] (setting [2]); on mutant G2019S LRRK2 (setting [3])) were 7.86 nM and 8.67 nM, respectively.

Consider `Cc1nc(Cc2nc3cnc4ccc(C#N)cc4c3n2C2CN(C)CC2(F)F)no1` (centres unmarked) [Example 32, 1-(4,4-difluoro-1-methylpyrrolidin-3-yl)-2-[(5-methyl-1,2,4-oxadiazol-3-yl)methyl]-1H-imidazo[4,5-c]quinoline-8-carbonitrile], for which the IC50 in assay [1] (setting [2]) was determined as 4.59 nM; at mutant G2019S LRRK2 (setting [3]), 5.98 nM.

For the compound `Cc1cnc(Cc2nc3cnc4ccc(C#N)cc4c3n2[C@@H]2CCN(C)C2)cn1` [Example 33, 2-[(5-methylpyrazin-2-yl)methyl]-1-[(3R)-1-methylpyrrolidin-3-yl]-1H-imidazo[4,5-c]quinoline-8-carbonitrile], the IC50 was 8.35 nM in assay [1] (wild type LRRK2, data obtained using the formate salt of the Example) and 6.82 nM at mutant G2019S LRRK2 (data obtained using the formate salt of the Example).

In the case of `Cc1nnn(Cc2nc3cnc4ccc(C#N)cc4c3n2[C@@H]2CCN(C)C2)n1` [Example 34, 1-[(3R)-1-methylpyrrolidin-3-yl]-2-[(5-methyl-2H-tetrazol-2-yl)methyl]-1H-imidazo [4,5-c]quinoline-8-carbonitrile], the values for the IC50 (in assay [1] (setting [2]); at mutant G2019S LRRK2 (setting [3])) were 5.53 nM and 5.04 nM, respectively.

As for `Cc1cc(Cc2nc3cnc4ccc(C#N)cc4c3n2[C@@H]2CCN(C)C2)on1` [Example 35, 2-[(3-methyl-1,2-oxazol-5-yl)methyl]-1-[(3R)-1-methylpyrrolidin-3-yl]-1H-imidazo [4,5-c]quinoline-8-carbonitrile], the IC50 in assay [1] (setting [2]) amounted to 7.57 nM; on mutant G2019S LRRK2 (setting [3]), 6.17 nM.

Consider `COc1cnn(Cc2nc3cnc4ccc(C#N)cc4c3n2[C@@H]2CCN(C)C2)c1` [Example 36, 2-[(4-methoxy-1H-pyrazol-1-yl)methyl]-1-[(3R)-1-methylpyrrolidin-3-yl]-1H-imidazo[4,5-c]quinoline-8-carbonitrile], for which the IC50 in assay [1] (setting [2]) turned out to be 5 nM; on mutant G2019S LRRK2 (setting [3]), 4.63 nM.

`Cc1nnc(Cc2nc3cnc4ccc(C#N)cc4c3n2[C@@H]2CCN(C)C2)s1` [Example 37, 1-[(3R)-1-methylpyrrolidin-3-yl]-2-[(5-methyl-1,3,4-thiadiazol-2-yl)methyl]-1H-imidazo[4,5-c]quinoline-8-carbonitrile]: the IC50 turned out to be 5.26 nM in assay [1] (setting [2]) and 12.6 nM on mutant G2019S LRRK2 (setting [3]).

For the compound `Cc1cnc(Cc2nc3cnc4ccc(C#N)cc4c3n2[C@@H]2CCN(C)C2)o1` [Example 38, 2-[(5-methyl-1,3-oxazol-2-yl)methyl]-1-[(3R)-1-methylpyrrolidin-3-yl]-1H-imidazo [4,5-c]quinoline-8-carbonitrile], the IC50 in assay [1] (setting [2]) amounted to 7.49 nM; on mutant G2019S LRRK2 (setting [3]) it was 12.9 nM.

Take `C[C@@H]1C[C@H](n2c(Cc3cnc(C(F)(F)F)cn3)nc3cnc4ccc(C#N)cc4c32)CCO1` [Example 39, 1-[(2R,4R)-2-methyltetrahydro-2H-pyran-4-yl]-2-{[5-(trifluoromethyl)pyrazin-2-yl]methyl}-1H-imidazo[4,5-c]quinoline-8-carbonitrile]: the half-inhibitory concentration (IC50) in assay [1] (setting [2]) turned out to be 17.4 nM; on mutant G2019S LRRK2 (setting [3]), 9.3 nM.

Regarding `Cc1cc(Cc2nc3cnc4ccc(Cl)cc4c3n2[C@@H]2CCN(C)C2)ncn1` [Example 40, 8-chloro-2-[(6-methylpyrimidin-4-yl)methyl]-1-[(3R)-1-methylpyrrolidin-3-yl]-1H-imidazo[4,5-c]quinoline], the IC50 came to 9.73 nM in assay [1] (setting [2]) and 13.9 nM on mutant G2019S LRRK2 (setting [3]).

As for `COc1cnn(Cc2nc3cnc4ccc(C(F)(F)F)cc4c3n2[C@@H]2CCO[C@H](C)C2)c1` [Example 41, 2-[(4-methoxy-1H-pyrazol-1-yl)methyl]-1-[(2R,4R)-2-methyltetrahydro-2H-pyran-4-yl]-8-(trifluoromethyl)-1H-imidazo[4,5-c]quinoline], the IC50 in assay [1] (setting [2]) came to 11.1 nM; on mutant G2019S LRRK2 (setting [3]), 3.87 nM.

On to `Cc1nc(Cc2nc3cnc4ccc(Cl)cc4c3n2[C@@H]2CCN(C)C2)no1` [Example 42, 8-chloro-2-[(5-methyl-1,2,4-oxadiazol-3-yl)methyl]-1-[(3R)-1-methylpyrrolidin-3-yl]-1H-imidazo[4,5-c]quinoline], for which the IC50 in assay [1] (setting [2]) is 12.9 nM; at mutant G2019S LRRK2 (setting [3]), 26 nM.

Turning to `Cc1nc(Cc2nc3cnc4ccc(Cl)cc4c3n2C2CN(C)CC2(F)F)no1` (centres unmarked) [Example 45, 8-chloro-1-(4,4-difluoro-1-methylpyrrolidin-3-yl)-2-[(5-methyl-1,2,4-oxadiazol-3-yl)methyl]-1H-imidazo[4,5-c]quinoline], the IC50 came out at 8.13 nM in assay [1] (setting [2]) and 5.82 nM on mutant G2019S LRRK2 (setting [3]).

As to `Cc1cn(Cc2nc3cnc4ccc(Cl)cc4c3n2C2CCOCC2(F)F)nn1` (centres unmarked) [Example 46, 8-chloro-1-(3,3-difluorotetrahydro-2H-pyran-4-yl)-2-[(4-methyl-1H-1,2,3-triazol-1-yl)methyl]-1H-imidazo[4,5-c]quinoline], the results for the IC50 (in assay [1] (setting [2]); on mutant G2019S LRRK2 (setting [3])) were 9.31 nM and 7.66 nM, respectively.

On to `CN1CC(n2c(Cn3cc(C4CC4)nn3)nc3cnc4ccc(Cl)cc4c32)C(F)(F)C1` (centres unmarked) [Example 47, 8-chloro-2-[(4-cyclopropyl-1H-1,2,3-triazol-1-yl)methyl]-1-(4,4-difluoro-1-methylpyrrolidin-3-yl)-1H-imidazo[4,5-c]quinoline], for which the IC50 in assay [1] (setting [2]) turned out to be 2.8 nM; on mutant G2019S LRRK2 (setting [3]) it was 1.42 nM.
